Test results published in the NIST ThermoML archive (doi:10.1016/j.tca.2016.05.007).

Assay: molar heat capacity at constant pressure
Conditions: 101.33 kPa, Small (less than 1 g) adiabatic calorimetry

COc1ccc(C2(c3ccc(OC)c(C)c3)OC(=O)c3ccccc32)cc1C [3,3-bis(4-methoxy-3-methylphenyl)-1(3H)-isobenzofuranone]
Conditions	molar heat capacity at constant pressure [J/K/mol]
122.17 K, Crystal	213.95
122.52 K, Glass	216.46
124.01 K, Crystal	216.41
124.36 K, Glass	219.13
125.87 K, Crystal	218.89
126.22 K, Glass	221.66
127.75 K, Crystal	221.61
128.1 K, Glass	224.36
129.65 K, Crystal	224.19
129.99 K, Glass	227.11
131.57 K, Crystal	226.74
131.9 K, Glass	229.75
133.5 K, Crystal	229.52
133.83 K, Glass	232.44
135.45 K, Crystal	232.5
135.78 K, Glass	234.99
137.41 K, Crystal	235.25
137.74 K, Glass	237.67
139.4 K, Crystal	237.93
139.72 K, Glass	240.4
141.4 K, Crystal	240.84
141.72 K, Glass	243.28
143.41 K, Crystal	243.44
143.74 K, Glass	246.09
145.45 K, Crystal	246.17
145.77 K, Glass	248.92
147.5 K, Crystal	249.06
147.82 K, Glass	251.76
149.57 K, Crystal	252.1
149.89 K, Glass	254.31
151.66 K, Crystal	254.85
151.97 K, Glass	257.37
153.77 K, Crystal	257.6
154.07 K, Glass	260.38
155.89 K, Crystal	260.26
156.2 K, Glass	263.17
158.03 K, Crystal	263.29
158.33 K, Glass	266.05
160.19 K, Crystal	265.94
160.48 K, Glass	269
162.37 K, Crystal	268.95
162.64 K, Glass	272.01
164.56 K, Crystal	271.82
164.81 K, Glass	275.02
166.77 K, Crystal	274.83
167 K, Glass	277.98
169 K, Crystal	277.76
169.19 K, Glass	280.78
171.25 K, Crystal	280.87
171.4 K, Glass	283.98
173.51 K, Crystal	283.67
173.62 K, Glass	286.89
175.79 K, Crystal	286.71
175.85 K, Glass	289.88
178.09 K, Crystal	289.96
178.09 K, Glass	293
180.35 K, Glass	296.49
180.41 K, Crystal	293.2
182.62 K, Glass	299.4
182.75 K, Crystal	296.08
184.9 K, Glass	302.23
185.1 K, Crystal	299.36
187.19 K, Glass	305.37
187.47 K, Crystal	302.25
189.49 K, Glass	308.6
189.86 K, Crystal	305.36
191.81 K, Glass	311.72
192.26 K, Crystal	308.64
194.14 K, Glass	314.93
194.69 K, Crystal	311.89
196.48 K, Glass	318.26
197.13 K, Crystal	315.34
198.84 K, Glass	321.49
199.32 K, Crystal	317.71
201.2 K, Glass	324.99
201.85 K, Crystal	321.03
203.58 K, Glass	328.08
204.39 K, Crystal	324.18
205.97 K, Glass	331.65
206.95 K, Crystal	328.02
208.37 K, Glass	334.98
209.51 K, Crystal	331.38
210.79 K, Glass	338.72
212.09 K, Crystal	334.57
213.22 K, Glass	342.02
214.68 K, Crystal	337.96
215.66 K, Glass	345.52
217.29 K, Crystal	341.78
218.12 K, Glass	349.05
219.9 K, Crystal	345.52
220.58 K, Glass	352.67
222.52 K, Crystal	348.92
223.06 K, Glass	355.96
225.16 K, Crystal	352.6
225.55 K, Glass	359.74
227.81 K, Crystal	355.97
228.02 K, Glass	362.84
230.46 K, Glass	366.31
230.47 K, Crystal	359.41
232.95 K, Glass	369.75
233.14 K, Crystal	362.97
235.43 K, Glass	373.33
235.82 K, Crystal	366.8
237.94 K, Glass	377.18
238.52 K, Crystal	370.5
240.46 K, Glass	380.87
241.23 K, Crystal	373.97
243.01 K, Glass	384.18
243.95 K, Crystal	377.59
245.58 K, Glass	387.76
246.68 K, Crystal	381.22
248.17 K, Glass	391.43
249.42 K, Crystal	384.68
250.78 K, Glass	395.34
252.17 K, Crystal	388.51
253.42 K, Glass	399.08
254.94 K, Crystal	392.35
256.07 K, Glass	402.8
257.72 K, Crystal	395.86
258.74 K, Glass	406.86
260.51 K, Crystal	399.92
261.44 K, Glass	410.9
263.31 K, Crystal	403.6
264.16 K, Glass	414.85
266.12 K, Crystal	407.84
266.89 K, Glass	419.34
268.94 K, Crystal	412.03
269.65 K, Glass	423.9
271.78 K, Crystal	417
272.43 K, Glass	428.57
274.62 K, Crystal	419.54
275.22 K, Glass	431.8
277.48 K, Crystal	423.7
278.04 K, Glass	436.42
280.36 K, Crystal	427.79
280.88 K, Glass	440.97
282.95 K, Crystal	430.44
283.74 K, Glass	445.62
285.84 K, Crystal	434.94
286.62 K, Glass	450.63
288.75 K, Crystal	438.86
289.52 K, Glass	455.31
291.64 K, Crystal	442.83
292.44 K, Glass	460.3
294.51 K, Crystal	446.52
295.38 K, Glass	465.32
297.4 K, Crystal	449.56
298.34 K, Glass	470.91
301.33 K, Glass	473.58
303.26 K, Crystal	457.78
304.32 K, Glass	491.69
306.21 K, Crystal	461.74
307.3 K, Glass	525.07
309.18 K, Crystal	465.91
310.26 K, Glass	604.32
312.18 K, Crystal	470.02
313.23 K, Glass	614.14
315.19 K, Crystal	474.07
316.23 K, Metastable liquid	622.32
318.23 K, Crystal	478.43
319.25 K, Metastable liquid	625.96
321.28 K, Crystal	482.81
322.29 K, Metastable liquid	629.84
324.35 K, Crystal	487.1
325.35 K, Metastable liquid	633.32
327.44 K, Crystal	491.54
328.43 K, Metastable liquid	636.56
330.55 K, Crystal	495.88
331.52 K, Metastable liquid	639.81
333.68 K, Crystal	500.17
334.64 K, Metastable liquid	642.98
336.81 K, Crystal	504.57
337.78 K, Metastable liquid	646.52
339.94 K, Crystal	508.36
340.93 K, Metastable liquid	649.55
343.08 K, Crystal	512.55
344.11 K, Metastable liquid	652.75
346.25 K, Crystal	517.45
347.3 K, Metastable liquid	656.04
349.43 K, Crystal	521.7
350.51 K, Metastable liquid	659.31
352.63 K, Crystal	525.97
353.74 K, Metastable liquid	662.1
355.85 K, Crystal	530.55
356.97 K, Metastable liquid	665.61
359.09 K, Crystal	535.23
360.22 K, Metastable liquid	669.03
362.34 K, Crystal	540.42
363.49 K, Metastable liquid	672.55
365.61 K, Crystal	545.96
366.77 K, Metastable liquid	676.27
368.9 K, Crystal	551.67
370.07 K, Metastable liquid	680.12
372.2 K, Crystal	556.9
